Measured values taken from patent publication US11192907B2, “Aminopeptidase A inhibitors and pharmaceutical compositions comprising the same” (QUANTUM GENOMICS, priority 2018, dated 2021).

What was measured:
[1] = system: brain APA; conditions: central infusions, cited from earlier work
[2] = molecular target: T1, recombinant mouse APA (Mus musculus, UniProt P16406); test: Measurement of APA activity in vitro (GluβNa hydrolysis, microplate); format: biochemical; conditions: 200 μM Glu-βNa, pH 7.4, 37° C., read-out: In vitro inhibition of aminopeptidase A, IC50 classification
T1 sequence (P16406 1-945): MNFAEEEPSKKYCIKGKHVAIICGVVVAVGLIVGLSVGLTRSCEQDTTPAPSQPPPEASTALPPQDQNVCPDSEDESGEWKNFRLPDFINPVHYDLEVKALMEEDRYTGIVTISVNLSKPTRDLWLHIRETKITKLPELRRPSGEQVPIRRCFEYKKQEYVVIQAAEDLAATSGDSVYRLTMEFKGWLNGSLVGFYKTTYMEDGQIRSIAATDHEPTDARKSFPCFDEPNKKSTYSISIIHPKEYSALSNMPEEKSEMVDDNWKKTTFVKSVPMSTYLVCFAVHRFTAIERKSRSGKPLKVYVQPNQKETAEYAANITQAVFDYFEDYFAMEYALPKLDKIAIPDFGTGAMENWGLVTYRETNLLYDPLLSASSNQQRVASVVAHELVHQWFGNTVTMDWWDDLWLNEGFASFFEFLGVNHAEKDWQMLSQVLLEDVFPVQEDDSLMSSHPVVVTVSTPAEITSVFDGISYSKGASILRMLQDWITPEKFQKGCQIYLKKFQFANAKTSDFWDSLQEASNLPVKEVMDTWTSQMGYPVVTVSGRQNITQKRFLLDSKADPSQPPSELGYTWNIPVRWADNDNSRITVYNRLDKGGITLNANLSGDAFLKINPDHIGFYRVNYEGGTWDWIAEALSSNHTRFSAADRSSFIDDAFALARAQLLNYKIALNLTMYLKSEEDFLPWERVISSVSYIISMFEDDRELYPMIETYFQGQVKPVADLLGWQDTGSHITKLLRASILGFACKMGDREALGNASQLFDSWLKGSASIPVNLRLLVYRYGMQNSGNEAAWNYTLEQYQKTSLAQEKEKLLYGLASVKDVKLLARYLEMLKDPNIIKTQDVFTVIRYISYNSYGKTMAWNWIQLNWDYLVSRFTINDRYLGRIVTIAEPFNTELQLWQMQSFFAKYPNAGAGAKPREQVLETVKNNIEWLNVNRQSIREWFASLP
Description: In vitro, in the presence of calcium ions, APA hydrolyses a synthetic substrate α-L-glutamyl-β-naphthylamide (GluβNa) to glutamate and β-naphthylamine (βNa). A diazotation reaction in acidic medium makes it possible to reveal the β-naphthylamine by formation of a violet-coloured complex: spectrophotometric measurement then makes it possible to know the amount of complex formed and, by reference to a standard curve produced with increasing concentrations of β-naphthylamine, to deduce the enzymatic activity of the sample.
The reaction takes place at pH 7.4 in 50 mM tris-HCl buffer, in the presence of calcium (4 mM CaCl2)); recombinant mouse APA is incubated at 37° C. in the presence of the substrate (200 μM Glu-βNa) and in the presence or absence of various concentrations of the inhibitor to be tested, in a final volume of 100 μL. The reaction is stopped by adding 10 μL of 3N HCl. A standard curve of β-naphthylamine was prepared in parallel by diazotizing increasing concentrations (up to 0.2 mM) of 2-naphthylamine in 0.1 N HCl.
The following are added to each well: 25 μL of sodium nitrite (NaNO2) (mix, wait 5 minutes at room temperature), 50 μL of ammonium sulfamate (mix, wait 5 minutes at room temperature), then add 25 μL of N-(1-naphthyl) ethylenediamine dihydrochloride (mix, wait for stabilization of the violet colour for approximately 30 minutes at 37° C.).
The absorbance is then measured at 540 nm.

[3] = molecular target: T2, brain APA (Mus musculus, UniProt P16406); test: Measurement of brain APA activity ex vivo after i.v. administration; format: in vivo, mice; conditions: for brain APA activity: 10 min
T2 construct: from tissue; host or cells: mouse brain homogenate
T2 sequence (P16406 1-945): T1 sequence (P16406 1-945)
Description: Brain APA activity was determined as described above.
In vivo, in mice (male, 18-20 g Charles River), Examples 22 and 52 were administered i.v. (5 mg/kg and 4 mg/kg respectively, in a volume of 200 μL). For each condition, five mice were used. Mice were sacrified 10, 30, 60, 120 and 180 min after the injection. The brains were immediately removed and homogenized by sonication in 10 vol of ice-cold 50 mM Tris-HCl buffer (pH 7.4). APA enzymatic activity was measured on brain homogenates. For this purpose, aliquots of the tissue homogenate (16 μL) were incubated for 30 min at 37° C. with 200 μM of GluβNA, 4 mM CaCl2, and 1 μM bestatin inhibitor, with or without 5 μM EC33, in a total volume of 100 μL of 50 mM Tris-HCl buffer (pH 7.4). Then the assay was pursued as described above.

[4] = acute oral, 15 to 150 mg/kg, conscious hypertensive DOCA-salt rats and SHR rats; cited from earlier work

| SMILES | IC50 [2] [µM] | also measured |
| --- | --- | --- |
| N[C@H](CS)CCS(=O)(=O)O [EC33, (S)-3 amino-4-mercapto-butylsulfonic acid] | 0.3 to 10 | effect on BP ([1]; several experimental models of hypertension): lower BP; effect on brain APA activity [1]: inhibit brain APA activity |
| NC(CCC(=O)O)P(=O)(O)CCc1ccccc1 (centres unmarked) [Example 22, 4-amino-4-[hydroxy(2-phenylethyl)phosphoryl]butanoic acid] | < 0.03 | brain APA activity maximally decreased by ([3]; 5 mg/kg i.v., conscious mice, from 10 min until 60 min): 47%; brain APA activity ([3]; 5 mg/kg i.v., mice): 37.5±3.3 nmol of GluNA hydrolyzed per mg of protein per h; brain APA activity time course ([3]; 5 mg/kg i.v., mice, after 120 min): return to basal values; ability to cross the blood brain barrier and enter the brain ([3]; 5 mg/kg i.v., mice, by inhibition of brain APA activity): cross the blood brain barrier (BBB) and to enter the brain |
| NC(CCC(=O)O)P(=O)(O)CCc1ccccc1-c1ccccc1 (centres unmarked) [Example 39, 4-amino-4-[(2-{[1,1′-biphenyl]-2-yl}ethyl)(hydroxy)phosphoryl]butanoic acid] | 0.03 to 0.3 | – |
| Cn1cc(CCP(=O)(O)C(N)CCC(=O)O)c2ccccc21 (centres unmarked) [Example 42, 3-carboxy-1-{hydroxy[2-(1-methyl-1H-indol-3-yl)ethyl]phosphoryl}propan-1-aminium chloride] | 0.03 to 0.3 | – |
| COc1cc(F)ccc1CCP(=O)(O)C(N)CCC(=O)O (centres unmarked) [Example 46, 4-amino-4-{[2-(4-fluoro-2-methoxyphenyl)ethyl](hydroxy)phosphoryl}butanoic acid] | < 0.03 | – |
| NC(CCC(=O)O)P(=O)(O)CCc1ccccc1OCc1ccccc1 (centres unmarked) [Example 48, 1-({2-[2-(benzyloxy)phenyl]ethyl}(hydroxy)phosphoryl)-3-carboxy propan-1-aminium chloride] | < 0.03 | – |
| NC(CCCC(=O)O)P(=O)(O)CCc1ccccc1 (centres unmarked) [Example 49, 5-amino-5-[hydroxy(2-phenylethyl)phosphoryl]pentanoic acid] | 0.3 to 10 | – |
| N[C@@H](CCC(=O)O)P(=O)(O)CCc1ccccc1 [Example 50, (1R)-3-carboxy-1-[hydroxy(2-phenylethyl)phosphoryl]propan-1-aminium chloride] | < 0.03 | – |
| N[C@H](CCC(=O)O)P(=O)(O)CCc1ccccc1 [Example 51, (1S)-3-carboxy-1-[hydroxy(2-phenylethyl)phosphoryl]propan-1-aminium chloride] | 0.3 to 10 | – |
| COc1ccccc1CCP(=O)(O)[C@@H](N)CCC(=O)O.Cl [Example 52, (1R)-3-carboxy-1-{hydroxy[2-(2-methoxyphenyl)ethyl]phosphoryl} propan-1-aminium chloride] | < 0.03 | brain APA activity ([3]; 4 mg/kg i.v., mice): 12.0±4.0 nmol of GluNA hydrolyzed per mg of protein per h; ability to cross the BBB and enter the brain ([3]; 4 mg/kg i.v., mice, by inhibition of brain APA activity): cross the BBB and to enter the brain; inhibition at 4 mg/kg ([3]; mouse, iv, 4 mg/kg i.v., mice, 120 min after the injection, read-out: brain APA activity inhibited by): 35% |
| N[C@@H](CCC(=O)O)P(=O)(O)CCc1ccccc1OC1CCCCC1 [Example 53, (4R)-4-amino-4-({2-[2-(cyclohexyloxy)phenyl]ethyl} (hydroxy)phosphoryl) butanoic acid] | < 0.03 | – |
| COc1ccccc1CP(=O)(O)C(N)CCS(=O)(=O)O (centres unmarked) [Example 60, 3-amino-3-{hydroxy[(2-methoxyphenyl)methyl]phosphoryl}propane-1-sulfonic acid] | 0.03 to 0.3 | – |
| COc1ccccc1CCP(=O)(O)C(N)CCS(=O)(=O)O (centres unmarked) [Example 62, 3-amino-3-{hydroxy[2-(2-methoxyphenyl)ethyl]phosphoryl}propane-1-sulfonic acid] | 0.03 to 0.3 | – |
| NC(CCS(=O)(=O)O)P(=O)(O)Cc1cccc(-c2ccccc2)c1 (centres unmarked) [Example 64, 3-amino-3-[({[1,1′-biphenyl]-3-yl}methyl)(hydroxy)phosphoryl]propane-1-sulfonic acid] | 0.3 to 10 | – |
| NC(CCCS(=O)(=O)O)P(=O)(O)CCc1ccccc1 (centres unmarked) [Example 67, 4-amino-4-[hydroxy(2-phenylethyl)phosphoryl]butane-1-sulfonic acid] | 0.03 to 0.3 | – |
| N[C@@H](CCS(=O)(=O)O)CSSC[C@@H](N)CCS(=O)(=O)O [RB150] | – | effect on BP [4]: dose-dependent decrease in BP |

Further lines, with some results ahead:

| IC50 [2] [µM] | SMILES | also measured |
| --- | --- | --- |
| < 0.03 | NC(CCC(=O)O)P(=O)(O)CCc1cccc(Cl)c1Cl (centres unmarked) [Example 40, 4-amino-4-{[2-(2,3-dichlorophenyl)ethyl](hydroxy)phosphoryl}butanoic acid] | – |
| 0.03 to 0.3 | COc1c(Cl)cccc1CCP(=O)(O)C(N)CCC(=O)O (centres unmarked) [Example 41, 4-amino-4-{[2-(3-chloro-2-methoxyphenyl)ethyl](hydroxy)phosphoryl}butanoic acid] | – |
| < 0.03 | NC(CCC(=O)O)P(=O)(O)CCc1ccccc1OC1CCCCC1 (centres unmarked) [Example 43, 3-carboxy-1-({2-[2-(cyclohexyloxy)phenyl]ethyl}(hydroxy)phosphoryl) propan-1-aminium chloride] | – |
| < 0.03 | COCCOc1ccccc1CCP(=O)(O)C(N)CCC(=O)O (centres unmarked) [Example 44, 3-carboxy-1-[hydroxy({2-[2-(2-methoxyethoxy)phenyl]ethyl})phosphoryl]propan-1-aminium chloride] | – |
| 0.3 to 10 | NC(CCC(=O)O)P(=O)(O)CCn1ncc2ccccc21 (centres unmarked) [Example 47, 4-amino-4-{hydroxy[2-(1H-indazol-1-yl)ethyl]phosphoryl}butanoic acid] | – |
| 0.3 to 10 | NC(CCS(=O)(=O)O)P(=O)(O)CCc1ccccc1 (centres unmarked) [Example 61, 3-amino-3-[hydroxy(2-phenylethyl)phosphoryl]propane-1-sulfonic acid] | – |
| 0.3 to 10 | NC(CCS(=O)(=O)O)P(=O)(O)CCCc1ccccc1 (centres unmarked) [Example 63, 3-amino-3-[hydroxy(3-phenylpropyl)phosphoryl]propane-1-sulfonic acid] | – |
| 0.3 to 10 | NC(CCS(=O)(=O)O)P(=O)(O)Cc1cc(-c2ccccc2)no1 (centres unmarked) [Example 65, 3-amino-3-{hydroxy[(3-phenyl-1,2-oxazol-5-yl)methyl]phosphoryl}propane-1-sulfonic acid] | – |
| 0.3 to 10 | NC(CCS(=O)(=O)O)P(=O)(O)Cc1cc(-c2ccccc2)on1 (centres unmarked) [Example 66, 3-amino-3-{hydroxy[(5-phenyl-1,2-oxazol-3-yl)methyl]phosphoryl}propane-1-sulfonic acid] | – |
| 0.3 to 10 | NC(CCP(=O)(O)O)P(=O)(O)CCc1ccccc1 (centres unmarked) [Example 68, {3-amino-3-[hydroxy(2-phenylethyl)phosphoryl]propyl}phosphonic acid] | – |
